Where two headings read alike, the source gives them in different places.
Assays:
[1] = tested on: wheat scab (Fusarium graminearum, Fusarium culmorum, or Fusarium avenaceum); type: in vivo; settings: for Medicinal Benefit Control Value: relative to no treatment; for Medicinal Benefit (number of infected berries in 1000 berries): sprayed once at GSs 65 to 71, no treatment 203
[2] = tested on: Fusarium graminearum, Fusarium culmorum, or Fusarium avenaceum (mycotoxin production, DON); settings: in vivo

COC(=O)NC(=S)Nc1ccccc1NC(=S)NC(=O)OC [Cercobin M, thiophanate-methyl]
Medicinal Benefit Control Value ([1]; 250 g ai/ha): 6.4% | Medicinal Benefit (number of infected berries in 1000 berries) ([1]; 250 g ai/ha): 190 | medicinal benefit (number of infected berries in 1000 berries), result in words ([1]; 250 to 500 g ai/ha (combination 500 + 120 g ai/ha), versus no treatment): almost no difference | Medicinal Benefit Control Value ([1]; 375 g ai/ha): 7.4% | Medicinal Benefit (number of infected berries in 1000 berries) ([1]; 375 g ai/ha): 218 | Medicinal Benefit Control Value ([1]; 500 g ai/ha): 11.3% | Medicinal Benefit (number of infected berries in 1000 berries) ([1]; 500 g ai/ha): 180 | amount of mycotoxin production (DON concentration), result in words [2]: inhibited in a dose-dependent manner
